What was measured:
S. aureus = assay: Time kill method (ASTM E 2315), log reduction of S. aureus; assay type: cell-based, S. aureus (ATCC 6538); details: 0.5% ADBAC Quat
Experimental: (§1) • (a) Determination of Time Kill Activity: The activity of antimicrobial compositions was measured by the time kill method [ASTM E 2315 Standard Guide for Assessment of Antimicrobial Activity Using a Time Kill Procedure], whereby the survival of challenged organisms exposed to an antimicrobial test composition is […] as a function of time. In this test, a diluted aliquot of the composition is brought into contact with a known population of test bacteria for a specified time period at a specified temperature. The test composition is neutralized at the end of the time period, which arrests the antimicrobial activity of the composition. The percent or, alternatively, log reduction from the original bacteria population is calculated. In general, the time kill method is known to those skilled in the art. In addition, comparative data on the foam profile of representative systems is shown. • (b) The composition can be tested at any concentration from 0-100%. The choice of which concentration to use is at the discretion of the investigator, and suitable concentrations are readily determined by those skilled in the art. All testing if performed in triplicate, the results are combined, and the average log reduction is reported. • (c) The choice of contact time period also is at the discretion of the investigator. Any contact time period can be chosen. Typical contact times range from 15 second to 5 minutes, with 30 seconds and 1 minute being typical contact times. The contact temperature also can be any temperature, typically room temperature, or about 25 degrees Celsius. • (d) The microbial suspension, or test inoculum, is prepared by growing a microbial culture on any appropriate solid media (e.g., agar). The microbial population then is washed from the agar with sterile physiological saline and the population of the microbial suspension is adjusted to about 10^8 colony forming units per ml (cfu/ml). • (e) The table below lists the test microbial cultures used in the following tests and includes the name of the bacteria, the ATCC (American Type Culture Collection) identification number, and the abbreviation for the name of the organism used hereafter.
(§2) S. aureus is a Gram positive bacteria, whereas, E. coli is a Gram negative bacteria.
(§3) The log reduction is calculated using the formula: Log reduction=log10(numbers control)−log10(test sample survivors). Foam Height Determination

E. coli = assay: Time kill method (ASTM E 2315), log reduction of E. coli; assay type: cell-based, Escherichia coli (ATCC 112229); details: 0.5% ADBAC Quat
Experimental: as §1, §2, §3

[1] = 1.95% w/w foam boosting agent, 1.25% Poly Trimoniumhydroxypropyl Cocoglucosides Chloride, 30 seconds exposure
[2] = 3.0% w/w foam boosting agent, 1.25% Poly Trimoniumhydroxypropyl Cocoglucosides Chloride, 30 seconds exposure
[3] = 4.2% w/w foam boosting agent, 1.25% Poly Trimoniumhydroxypropyl Cocoglucosides Chloride, 30 seconds exposure
[4] = quaternized sugar-derived surfactant 1.25% w/w, 1.95% alkyl dimethyl amine oxide, 30 second exposure

Row | Substance | S. aureus Log Reduction (S. aureus; [4]) | E. coli Log Reduction (E. coli; [4]) | other results
1 | Alkyl Dimethyl Amine Oxide |  |  | S. aureus Log Reduction (S. aureus; [1]): >5.5 log; S. aureus Log Reduction (S. aureus; [2]): >5.5 log; S. aureus Log Reduction (S. aureus; [3]): >5.5 log; E. coli Log Reduction (E. coli; [1]): >5.5 log; E. coli Log Reduction (E. coli; [2]): >5.5 log; E. coli Log Reduction (E. coli; [3]): >5.5 log
2 | Cocoglucosides Hydroxypropyl-trimonium Chloride [TM8610] | >5.0 log | >5.0 log | 
3 | Lauridimonium-hydroxypropyl Cocoglucosides Chloride [L8610] | >5.0 log | >5.0 log | 
4 | Lauridimonium-hydroxypropyl Laurylglucosides Chloride [L1210] | >5.0 log | >5.0 log | 
5 | Laurylglucosides Hydroxypropyl-trimonium Chloride [TM1212] | >5.0 log | >5.0 log | 
6 | Stearyldimonium-hydroxypropyl Laurylglucosides Chloride [S1218] | >5.0 log | >5.0 log | 

From patent publication US9095134B2, “Antimicrobial compositions containing cationic active ingredients and quaternary sugar derived surfactants” (priority 2010, dated 2015)
